Measurements from patent publication US10639303B2, “Alkaloids and their preparation and application as anti-HSV-1 agents” (OCEAN UNIVERSITY OF CHINA, priority 2015, dated 2020).
Where two headings read alike, the source gives them in different places.

Key:
HSV-1 = assay: cytopathic effects (CPE) assay, antiviral activity against HSV-1 in Hep-2 cells; assay type: cell-based, Herpes Simplex Virus 1; settings: Human alphaherpesvirus 1; HSV-1-infected Hep-2 cells, neutral red OD 540 nm, Reed-Muench; read-out: IC50 (anti-HSV-1 activity)
Protocol: The antiviral activities against HSV-1 were evaluated by a cytopathic effects (CPE) assay. Hep-2 monolayer cells were cultured with trypsin enzyme-digesting technique and transferred to 96-well plates. The HSV-1 virus was seeded in Hep-2 cells in 96-well plates, with 2% RPMI-1640 medium, and incubated at 37° C., 5% CO2. After more than 90% lesions, the virus-infected cells were repeatedly frozen and thawed 3 times, centrifuged, quantitative packed and stored at −80° C. Each tested compound was dissolved in 10 μl DMSO to make a homogeneous solution and the solution was diluted 10 times by half-and-half dilution with 2% RPMI-1640 medium. The gradient solution was added to the infected cells incubated in 96-well plates, Ribavirin was used as positive control. Normal cells were used as blank control. Infected cells were used as negative control. All samples were incubated at 37° C., 5% CO2. Pathological changes were observed once every hour, for 24 h. After 90% lesions in negative control, 1% neutral red was added after removal of liquid in 96-well plates. The OD value was determined at 540 nm. IC50 values of tested compounds were calculated by Reed-Muench methods.

[1] = cytotoxicity (TC50) accompanying the CPE assay; assay type: cell-based; settings: human

IC50 (HSV-1) [µM] | Structure (SMILES) | CC50 at 24 h [1] [µM] | CC50 at 24 h ([1]; Hep-2 cells, read-out: TC50) [µM]
0.07 | C=C(C)[C@@H]1CC[C@](C)(/C=C/c2ccc3c(c2O)[C@@](O)(c2ccccc2)[C@H](OC)C(=O)N3)O1 | 64.9 | –
0.21 | CO[C@@H]1C(=O)Nc2ccc(/C=C/[C@]3(C)CC[C@H](O)[C@@H](C)C3)c(O)c2[C@@]1(O)c1ccccc1 | 36.9 | –
78 | NC(=O)c1ncn([C@@H]2O[C@H](CO)[C@@H](O)[C@H]2O)n1 [Ribavirin, reference compound] | – | > 10000
